Experimental data from publication PMC12081870 (Communications Biology, 2025).

Tests used:
Las17 = details: cell free extracts; ref [24]; cited from earlier work
Excerpt: The model predicts an extensive interaction surface highlighted in red (Fig. 7E).

[1] = tested on: Sla1 inhibition of Las17-mediated actin polymerisation; details: with Arp2/3; ref [24]; cited from earlier work
Excerpt: As shown in vitro in Fig. 7D, the addition of activated Sec4 to pyrene assays does indeed rel ...

[2] = tested on: Sla1 inhibition of Las17-mediated actin polymerisation; experiment: Pyrene actin assay, alleviation of Sla1 inhibition of Las17-mediated actin polymerisation; type: biochemical; details: Arp2/3-independent, activated Sec4, Las17 300 nM, Sla1 SH3 1+2+3 300 nM, 3 µM actin
Experimental: Fluorometry assays were performed as described previously. 370 μl assays used 3 μM actin as indicated unless otherwise specified. Pyrene-actin was added to 5%, mixed thoroughly, and added to the fluorometry cuvette. Polymerization salts, 10× KME (500 mM KCl, 10 mM MgCl2, 10 mM EGTA, 100 mM Tris-HCl [pH 8.0]) were mixed with fragments or G buffer to give final concentration of 0.5× KME before reading fluorescence. […] Experiments were carried out three separate times with different protein preparations and a representative graph shown.
Liposome binding assays were carried out as described previously. To prepare liposomes 11 μl of a 25 mg/ml solution of Folch fraction-1 was dried under a nitrogen stream. They were washed in chloroform, dried under nitrogen, and further washed with diethyl ether to remove all traces of chloroform before being dried again. […] The pellets were resuspended in 50 µl buffer B and samples were analysed by SDS-PAGE. The proportion of protein in each sample was determined by densitometry of the Coomassie stained gels using a BioRad GelDoc. […] To normalise the data the amount of protein in the supernatant and pellet of each sample was added together to give a value for 100%, and then the % in either the supernatant or pellet alone was calculated. […]

actin [3] = experiment: TIRF assay, actin filament growth (elongation) rate; type: biochemical, rabbit; details: 0.5 µM actin, vs actin only
Experimental: (§1) Actin filament growth rate assays. Total Internal Reflection microscopy (TIRFm) was performed using a method modified from[58] using purified rabbit muscle actin and Alexa488 actin (Cytoskeleton, Inc) at a 4:1 ratio. Glass coverslips (Deckgläser) were cleaned using a modification of the method described. Briefly, coverslips were rinsed with gentle agitation in acetone (30 min), then water (5 min) then cleaned in Piranha solution (13 ml concentrated sulphuric acid and 6 ml hydrogen peroxide) for 90 min before rinsing with distilled water and ethanol, drying and coating with 1 mg/ml mPEG silane MW 2000 (Layssan Bio). TIRF reaction buffers 10× KMEI, GOC mixture, and methyl cellulose (400 cP, Sigma) were prepared in advance. 10× KMEI buffer (500 mM KCl, 100 mM Imidazole (pH 7.0), 10 mM MgCl2, 10 mM EGTA (pH 7.0)) was filtered through a sterile syringe-filter device (0.22 μm, Thermo Fisher Scientific) and stored at room temperature. GOC mixture was prepared by dissolving 20 mg of Catalase (Calbiochem) and 100 mg of Glucose-oxidase in 10 ml cold water. Undissolved particles were cleared by ultracentrifugation and 50 μl aliquots from the upper 90% of the supernatant were stored at −20 °C. 50 ml of 2% methyl cellulose was prepared by dissolving 1 g methylcellulose in 25 ml of Milli-Q water preheated to 65 °C, before adding 25 ml of room temperature water and rotating overnight at 4 °C. […]

[4] = tested on: Las17-GFP and Arc15-mCherry; experiment: Dual-reporter lifetimes, Las17-GFP and Arc15-mCherry co-localisation; type: cell-based, Saccharomyces cerevisiae; details: Las17-GFP / Arc15-mCherry dual-label strain
Experimental: A size bar for each set of kymographs is shown on the upper right of each set. For (A) and (C) size bar is 100 nm and for B is 200 nm. Error bars are standard deviation. […] The site of interest is labelled in the first two time panels with a white arrow. Exposure 0.5 sec with 1 second time lapse. 120 s recorded. […] Error bars are standard deviation.
Individual spots were analysed for lifetimes and behaviours.
Yeast strains used in this study are listed in Supplementary table 2 and plasmids used in Supplementary table 1. Unless stated otherwise, cells were grown with rotary shaking at 30 °C in liquid YPD medium (1% yeast extract, 2% Bacto-peptone, 2% glucose supplemented with 40 μg/ml adenine) or in synthetic medium (0.67% yeast nitrogen base, 2% glucose) with appropriate supplements. […] DNA cassettes carrying mutations for integration were transformed into KAY1801. Mutant colonies were counter-selected on minimal medium, containing 0.005% uracil and 0.1% 5’-Fluoroorotic Acid (5-FOA; Melford laboratories). Allele exchange, in growing Ura3^-, 5-FOA resistant colonies, was confirmed by PCR and sequencing.
For live-cell imaging, cells expressing tagged proteins were visualised after growing to early log phase. Analysis was carried out at room temperature (22 °C). […] Images were taken simultaneously on separate scientific complementary metal oxide semiconductor (sCMOS) cameras (30 msec exposure). Seven 250 nm sections were acquired every 0.5 sec (241 time points). The stacks were then deconvolved and processed, using SoftWorx. Protein localisation and lifetime was analysed from those projections. Fiji software was used to assemble movies and kymographs, to track and record behaviour of individual spots. Graphs show mean ± SD. […] Where appropriate data was tested for normal distribution using Graphpad Prism software, and then subjected to the appropriate test as described in the methods for each experiment type.

actin [5] = experiment: TIRF assay, nucleation of actin filaments (filament number); type: biochemical, rabbit
Experimental: To assess how filaments generated in the presence or absence of Arp2/3 differ, a TIRF-based assay was used. Videos of representative assays are shown in Supplementary Videos 1, 2, 3 and combined in Supplementary Video 4.
as §1, with “water.” for “water. Undissolved particles were cleared by ultracentrifugation and 50 μl aliquots from the upper 90% of the supernatant were stored at −20 °C. 50 ml of 2% methyl cellulose was prepared by dissolving 1 g methylcellulose in 25 ml of Milli-Q water preheated to 65 °C, before adding 25 ml of room temperature water and rotating overnight at 4 °C.”

Substance | direct binding to Las17 (Las17) | relief of Sla1-SH3 inhibition of Las17-Arp2/3-mediated actin nucleation [1] | relief of Sla1 inhibition of Las17-mediated actin polymerisation [2] | effect on elongation rate of actin filaments (actin [3]) | duration of co-localization of Las17-GFP and Arc15-mCherry [4] | time of Arc15-mCherry alone after Las17 disassembly [4] | time of Las17 at the site before Arc15 is recruited [4] | increase in nucleation rate compared to actin alone (actin [5]) | number of filaments (actin [5]; 10 minute time point, 500 nM actin, 50 nM Las17, per unit area, errors are standard deviation, actin alone 16.3 ± 2.3)
Sec4: small GTPase Sec4 (full length) | could bind directly to Las17 | alleviated Sla1-SH3 domain inhibition of Las17-Arp2/3-mediated actin nucleation | does indeed relieve inhibition of Las17-mediated actin polymerisation | – | – | – | – | – | –
Las17: Las17 fragment; residues not stated for TIRF; in b194 Las17 300–422; in b52 full length Las17-GFP in cells | – | – | – | sufficient to increase the elongation rate of actin filaments | about 15 seconds | about 4 s | about 22 s | two-three fold | 42.3 ± 7.0
